Measurements as given in ChEMBL document CHEMBL1157539, “Thousands of chemical starting points for antimalarial lead identification” (Nature, 2010).

Tested on: Plasmodium falciparum
Assay: GSK_TCMDC: Inhibition of Plasmodium falciparum 3D7 in whole erythrocytes, using parasite LDH activity as an index of growth.
Type: functional, organism-based
Conditions: Plasmodium falciparum, 3D7

## O=C([C@H]1CCCCN1c1ccc([N+](=O)[O-])c2ccccc12)N1CCN(c2ncccn2)CC1
  XC50: 199 nM

## CCC(CC)n1c(C)cc2c3c(N)nc(N)nc3ccc21
  XC50: 3.2 nM

## Cc1ccc(Cn2ccc3c4c(N)nc(N)nc4ccc32)cc1
  XC50: 3.2 nM

## CC1CN(c2ccc(NC(=O)c3cccs3)cc2)CCN1Cc1cccc(F)c1 (stereo not drawn)
  XC50: 492 nM

## CN1CCCN(Cc2cccc(-c3ccc(NC(=O)c4cccc(C#N)c4)cc3)c2)CC1
  XC50: 723 nM

## O=C(Nc1ccc(-c2cccc(CN3CCC(O)CC3)c2)cc1)c1cccc(Cl)c1
  XC50: 826 nM

## CC(C)c1ccc(NC(=O)c2ccc(NCCCN(C)Cc3ccccc3)c([N+](=O)[O-])c2)cc1
  XC50: 683 nM

## CCC(C)c1cnc2nc(N)nc(N)c2c1C (stereo not drawn)
  XC50: 444 nM

## Cn1c(N)c(C(=O)CSc2nnc(-c3cccs3)n2Cc2ccccc2)c(=O)n(C)c1=O
  XC50: 792 nM

## CCOC(=O)c1c(CSc2ccccc2)oc2cc(CN(C)C)c(O)c(Cl)c12
  XC50: 657 nM

## CC[C@H]1CN2CC[C@H]1C[C@H]2[C@H](O)c1cc(-c2ccc(F)cc2)nc2ccc(OC)cc12
  XC50: 49.7 nM

## COc1ccc(NC(=O)CCNc2cc(C)nc(NCc3ccccc3C)n2)cc1
  XC50: 1070 nM

## Cc1ccc(C2(CN3CCC(NC(=O)c4cc[nH]n4)CC3)CCCCC2)cc1
  XC50: 225 nM

## CC[C@H]1CN2CC[C@H]1C[C@H]2[C@H](O)c1cc(-c2ccc(C)cc2)nc2ccc(OC)cc12
  XC50: 109 nM

## Nc1nccc2ccc(Oc3ccncc3)cc12
  XC50: 481 nM

## CN1CC[C@@H](Oc2cc(NC(=O)Nc3ccccc3Br)ccc2Cl)C1
  XC50: 1100 nM

## O=C(Nc1ccc2c(c1)CN(Cc1ccc(N3CCCC3)o1)CCC2)c1ccoc1
  XC50: 953 nM

## N#Cc1ccccc1C(=O)N(Cc1cncn1Cc1cccc(F)c1)CC1CC1
  XC50: 734 nM

## O=C(/C=C/c1ccc(Cl)c(Cl)c1)NC1CCC(CN2CCC(c3c[nH]c4ccncc34)CC2)CC1 (stereo not drawn)
  XC50: 398 nM

## CCCCN(CCCC)CCNC(=O)c1ccc(-c2nc3cc(Cl)ccc3[nH]2)c(OCC)c1
  XC50: 570 nM

## Cc1cccc2nc(-c3ccc(-c4ccc(NC(=O)Nc5ccc(Cl)c(Cl)c5)cc4)cc3)[nH]c12
  XC50: 826 nM

## O=C(c1cccc(-c2noc(C(F)(F)F)n2)c1)N1CCN(C(=O)c2ccc3cc[nH]c3c2)CC1
  XC50: 107 nM

## Cc1cccc2nc(-c3cccc(-c4cccc(CNCc5ccccc5)c4)c3)[nH]c12
  XC50: 393 nM

## CCCN1CC[C@@H](CCCc2ccnc3ccc(O)cc23)[C@@H](CC)C1
  XC50: 889 nM

## CCCNCc1ccc(-c2ccc(CN(Cc3cnc(C)cn3)C(=O)/C=C/c3ccccc3C)cc2)nc1
  XC50: 919 nM

## CCC(CC)OC(=O)C(C)c1cccc(C(=O)c2ccccc2)c1 (stereo not drawn)
  XC50: 833 nM

## CCC(=O)N(c1ccccc1)C1CCN(CCCC(NC(=O)c2cc(C(F)(F)F)cc(C(F)(F)F)c2)c2ccc(Cl)c(Cl)c2)CC1 (stereo not drawn)
  XC50: 803 nM

## COc1ccc(Cl)cc1NC(=O)CN(C)C(=O)c1cnn(-c2ccccc2)n1
  XC50: 228 nM

## CCC(CCON1C(N)=NC(N)=NC1(C)C)c1ccc(Cl)cc1 (stereo not drawn)
  XC50: 3.2 nM

## CCN(CC)S(=O)(=O)c1ccc(C(C)NC(=O)c2ccccc2COc2ccccc2)cc1 (stereo not drawn)
  XC50: 330 nM

## O=c1cc(NCCNCc2cccc(-c3ccccc3)c2)[nH]c2ccccc12
  XC50: 1030 nM

## CCn1c(-c2cc(C)on2)nc2cnc(Oc3ccc(C(=O)N4CC(=O)N(C)C4C(C)(C)C)cc3)cc21 (stereo not drawn)
  XC50: 1820 nM

## Cc1cccc(Nc2nccc(Nc3cccc(C(=O)NCCN4CCOCC4)c3)n2)c1
  XC50: 1420 nM

## N#Cc1cncc(-c2nc3c(N4CCCC(N)C4)cccc3n2CCNCc2ccccc2)c1 (stereo not drawn)
  XC50: 768 nM

## CCN(CC)CCCNc1ncc2c(-c3ccc(NC(=O)Nc4cc(C(F)(F)F)ccc4F)cc3)nn(C)c2n1
  XC50: 220 nM

## COc1cc2ncnc(Nc3ccc4nc(-c5ccccc5)[nH]c4c3)c2cc1OC
  XC50: 443 nM

## COc1ccc(NC(=O)[C@H](CC(C)C)Nc2cc(C)nc(NCCc3ccc(F)cc3)n2)cc1
  XC50: 925 nM

## COc1cc2nccc(Nc3cc(C)cc(O)c3)c2cc1OC
  XC50: 905 nM

## CN1CCN(CCCN(Cc2csc(-c3ccc(CNCc4ccccc4)cc3)n2)S(=O)(=O)c2ccccc2Cl)CC1
  XC50: 876 nM

## O=C(NC1CCCc2ccccc21)[C@@H]1CCCN1C(=O)c1ccc(O)c(-c2cccc([N+](=O)[O-])c2)c1 (stereo partly drawn)
  XC50: 678 nM

## OCC1CCN(Cc2ccc(-c3ccc(-c4nc5ccccc5[nH]4)cc3)cc2)CC1
  XC50: 898 nM

## CNC(=O)c1ccccc1Nc1nc(Nc2cccnc2)ncc1C
  XC50: 101 nM

## CC(C)=CCN1CCC(C(=O)Nc2ccc(-c3nc4ccccc4[nH]3)cc2)CC1
  XC50: 908 nM

## Nc1nc2ccc(S(=O)(=O)Nc3ccc(C(=O)N[C@@H](CCC(=O)O)C(=O)O)c(F)c3)cc2c(=O)[nH]1
  XC50: 824 nM

## CC1(C)NC(=N)N=C(NOCC=Cc2ccccc2)N1
  XC50: 227 nM

## ON=C(c1nc2ccccc2[nH]1)c1nc2ccccc2[nH]1
  XC50: 1090 nM

## Oc1ccccc1CN(CCCN(Cc1ccccn1)Cc1ccccc1O)Cc1ccccn1
  XC50: 1060 nM

## Cc1nc(C)c(-c2ccc(Oc3cc(Cl)cc(Cl)c3)cc2)c(O)c1Br
  XC50: 242 nM

## NCc1ccc(CNCc2cccc(-c3ccc(-c4nc5cc(C(F)(F)F)ccc5[nH]4)cc3)c2)cc1
  XC50: 261 nM

## O=C(CNC(=O)c1ccc(O)cc1)Nc1cccc(-c2cccc(-c3nc4cc(C(F)(F)F)ccc4[nH]3)c2)c1
  XC50: 1040 nM

## CC(=O)c1cccc2[nH]c(C(=O)NC3CCC(CCN4CCc5ccc(C#N)cc5C4)CC3)cc12 (stereo not drawn)
  XC50: 842 nM

## CCCCSc1ccc(CNCCCCCCNCc2ccc(SCCCC)c3ccccc23)c2ccccc12
  XC50: 631 nM

## CC(Cc1ccc(OCCN2CCN(c3ccccc3)CC2)cc1)NCC(O)c1cccc(Cl)c1F (stereo not drawn)
  XC50: 873 nM

## CC1N=C(N)N=C(N)N1OCc1ccccc1 (stereo not drawn)
  XC50: 32.9 nM

## O=C(Nc1cccc(-c2nn3ccccc3c2-c2ccnc(Nc3ccc(-c4cc[nH]n4)cc3)n2)c1)c1c(F)cccc1F
  XC50: 189 nM

## CCCCCn1c(Sc2ccc(C#N)c([N+](=O)[O-])c2)nnc1-c1cccc(Cl)c1
  XC50: 768 nM

## Cc1ccc(NC(=O)c2ccc(N3CCC(c4ccccc4C)CC3)nc2)cc1
  XC50: 1400 nM

## CC(=NNC(S)=NC(c1ccccc1)c1ccccc1)c1ccccn1
  XC50: 896 nM

## COCCSc1nc2scc(C)c2c(=O)n1Cc1cccc(OC)c1
  XC50: 912 nM

## CCOc1ccc(Br)cc1/C=C/C(=O)Nc1ccc2c(c1)CN(C)CCC2
  XC50: 824 nM

## Cc1nc2ccc3ccc(CNc4ccc(C(=O)CC(CCC(=O)O)C(=O)O)cc4)cc3c2c(=O)[nH]1 (stereo not drawn)
  XC50: 35.7 nM

## Cn1nc(C(F)(F)F)cc1-c1ccc(C(=O)NC2CCC(CN3CCC(c4c[nH]c5ccccc45)CC3)CC2)s1 (stereo not drawn)
  XC50: 565 nM

## O=C(CNC1CCCCC1)Nc1cccc(C(=O)Nc2cccc(C(F)(F)F)c2)c1
  XC50: 416 nM

## Cc1ccc(N)cc1-c1nc(NC2CC(C)(C)NC(C)(C)C2)nc2c1ccc(=O)n2-c1c(F)cccc1F
  XC50: 842 nM

## Cc1ccc2cc(NC(=O)CCCCCCCON3C(N)=NC(N)=NC34CCCCC4)ccc2n1
  XC50: 92.5 nM

## COc1ccc(CNC2CCN(c3ccc(NC(=O)c4cccc(Cl)c4)cc3)CC2)cc1OC
  XC50: 1020 nM

## O=C(Nc1cccc(-c2nn3ccccc3c2-c2ccnc(Nc3cccc(F)c3)n2)c1)c1c(F)ccc(F)c1Cl
  XC50: 1140 nM

## O=[N+]([O-])c1cccc(C(Nc2ccccn2)c2ccc3cccnc3c2O)c1 (stereo not drawn)
  XC50: 1330 nM

## CC(C)C(C)(C#N)NC(=O)CSc1nc2ccc([N+](=O)[O-])cc2s1 (stereo not drawn)
  XC50: 1030 nM

## O=C(Cc1cccnc1)Nc1cccc(-c2cccc(-c3nc4cc(C(F)(F)F)ccc4[nH]3)c2)c1
  XC50: 677 nM

## Nc1ccc2[nH]cc(C3CCN(CC4CCC(NC(=O)/C=C/c5ccc(Cl)c(Cl)c5)CC4)CC3)c2n1 (stereo not drawn)
  XC50: 731 nM

## CCc1ccc(C2CCN(CCCCNC(=O)c3ccc(-c4ccc(Cl)cc4)cc3)CC2)c(O)c1
  XC50: 891 nM

## CCCN(CC)CCOC(=O)c1ccccc1
  XC50: 739 nM

## CN1CCN(CCCN(Cc2ccc(-c3cccc(CNCc4ccc5c(c4)OCO5)c3)cc2)C(=O)NC2CCCCC2)CC1
  XC50: 988 nM

## Cc1cc(Nc2ccncc2)n2nc(C)c(-c3ccc(Cl)cc3)c2n1
  XC50: 157 nM

## COc1ccc(-c2ccc(NC(=O)c3cccc(C#N)c3)cc2)cc1CN1CCCC(C(N)=O)C1 (stereo not drawn)
  XC50: 863 nM

## Nc1nc(N)c2cc3ccc(OCc4ccccc4)cc3nc2n1
  XC50: 320 nM

## Cc1sc2nc(CN3CCCC3)nc(-n3c(NCCO)nc4ccccc43)c2c1C
  XC50: 1240 nM

## Cc1nccc2c(NC(=O)N[C@@H]3CCN(c4ncc(C(F)(F)F)cc4Br)C3)cccc12
  XC50: 364 nM

## CC(C)/C(=C(/F)CN1C(=O)C(NC(=O)c2cc3ccccc3[nH]2)C(=O)N(c2ccccc2)c2ccccc21)c1ccccc1 (stereo not drawn)
  XC50: 697 nM

## CCCNC[C@@H](O)[C@H](Cc1ccccc1)NC(=O)c1cc(NCC)cc(N2CCCCS2(=O)=O)c1
  XC50: 224 nM

## Cc1c(Cc2ccccc2Cl)cnc2nc(N)nc(N)c12
  XC50: 7.42 nM

## O=c1c2c([nH]c3cc(Cl)ccc13)CCCC2
  XC50: 810 nM

## O=C(Nc1ccc(-c2nc3ccccc3[nH]2)cc1)C1CCN(Cc2ccccc2)CC1
  XC50: 1760 nM

## CC1CCCN(S(=O)(=O)c2cc(Br)cc3c2N(C(=O)C2CC2)CC3)C1 (stereo not drawn)
  XC50: 724 nM

## O=C(Nc1cccc(-c2cccc(-c3nc4cc(C(F)(F)F)ccc4[nH]3)c2)c1)c1csnn1
  XC50: 238 nM

## O=C(NCc1cccnc1)C(c1cc2ccccc2o1)N1CCN(C(c2ccccc2)c2ccccc2)CC1 (stereo not drawn)
  XC50: 713 nM

## O=C(CNC1CCCCC1)c1ccc(O)c(O)c1
  XC50: 660 nM

## C[C@@H](Oc1cc(-n2cnc3ccc(NC(=O)NC(C)(C)C)cc32)sc1C(N)=O)c1ccccc1Cl
  XC50: 330 nM

## Nc1ncc(-c2ccsc2)c2ccc(-c3cnc[nH]3)cc12
  XC50: 573 nM

## c1ccc2[nH]c(-c3ccc(-c4ccc(CN5CCCCC5)cc4)cc3)nc2c1
  XC50: 750 nM

## COc1cc(NC(=O)c2ccc3c(=O)n(Cc4ccccc4)c(=S)[nH]c3c2)cc(OC)c1OC
  XC50: 743 nM

## Cc1ccc(S(=O)(=O)NC2CCN(c3ccnc4cc(Cl)ccc34)C2)cc1 (stereo not drawn)
  XC50: 621 nM

## CCCCCCP(=O)(COc1ccc(CCN(CC(O)COc2cccc3[nH]c(C(N)=O)cc23)CC(O)COc2cccc3[nH]c(C(N)=O)cc23)cc1)OCCCC (stereo not drawn)
  XC50: 724 nM

## O=C(CCc1cccnc1)Nc1cccc(-c2ccc(-c3nc4cc(C(F)(F)F)ccc4[nH]3)s2)c1
  XC50: 953 nM

## NC(=O)c1ccc(C(=O)Nc2cccc(-c3cccc(-c4nc5cc(C(F)(F)F)ccc5[nH]4)c3)c2)cc1
  XC50: 229 nM

## COc1ccc(CN2CCC(CNC(C)c3cccc4ccccc34)CC2)cc1 (stereo not drawn)
  XC50: 175 nM

## C=CCc1cccc(OC)c1OCCCON1C(=N)N=C(N)NC1(C)C
  XC50: 3.2 nM
